This is an account of results in US8426587B2, “Haloallylamine inhibitors of SSAO/VAP-1 and uses therefor” (Pharmaxis Ltd., priority 2007, dated 2013).

In one experiment the target is T1, Human MAO-B (Homo sapiens, UniProt P27338).
T1 sequence (P27338 1-520): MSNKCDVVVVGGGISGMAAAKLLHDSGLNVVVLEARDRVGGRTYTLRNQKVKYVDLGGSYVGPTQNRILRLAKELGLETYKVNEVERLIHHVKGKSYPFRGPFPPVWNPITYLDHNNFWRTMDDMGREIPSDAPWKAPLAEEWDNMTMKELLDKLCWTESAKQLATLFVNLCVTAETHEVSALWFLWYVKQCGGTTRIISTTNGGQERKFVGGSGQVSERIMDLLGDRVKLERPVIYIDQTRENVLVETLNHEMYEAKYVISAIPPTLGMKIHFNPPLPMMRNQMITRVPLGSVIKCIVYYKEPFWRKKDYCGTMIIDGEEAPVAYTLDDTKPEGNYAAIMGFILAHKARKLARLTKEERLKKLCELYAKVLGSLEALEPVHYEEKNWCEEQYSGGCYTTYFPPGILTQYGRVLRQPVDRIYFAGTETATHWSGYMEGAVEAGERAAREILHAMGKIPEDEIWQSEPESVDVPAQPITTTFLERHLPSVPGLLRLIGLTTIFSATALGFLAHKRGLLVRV
Nature of the experiment: Inhibition of recombinant MAO-B (Amplex Red). In kind it is biochemical. The conditions noted are these: 50 μM benzylamine. The protocol: Recombinant MAO-B was incubated in 0.1 M sodium phosphate buffer pH 7.4 with varying concentration of test compounds for 30 min at 37° C. The homogenate/protein was then incubated at 37° C. with […] Amplex® Red, 0.75 U/ml HRP and 40 μM benzylamine (mouse SSAO), 300 μM benzylamine (human SSAO), 100 μM tyramine (MAO-A) or 50 μM benzylamine (MAO-B) and the formation of resorufin was measured (excitation range 530-560 nm and emission at 590 nm) every 5 min in either a Tecan Infinite 200 or a BMG Fluorostar Optima platereader. IC50 were estimated using Graphpad Prism software.

A further experiment addresses T2, Mouse SSAO/VAP-1 (Mus musculus, UniProt O70423).
T2 construct: Adipocytes were used as an SSAO source either as adherent cells or as a homogenate; endogenous in cells; host or cells: 3T3-L1 murine fibroblasts (ATCC) differentiated into adipocytes
T2 sequence (O70423 1-765): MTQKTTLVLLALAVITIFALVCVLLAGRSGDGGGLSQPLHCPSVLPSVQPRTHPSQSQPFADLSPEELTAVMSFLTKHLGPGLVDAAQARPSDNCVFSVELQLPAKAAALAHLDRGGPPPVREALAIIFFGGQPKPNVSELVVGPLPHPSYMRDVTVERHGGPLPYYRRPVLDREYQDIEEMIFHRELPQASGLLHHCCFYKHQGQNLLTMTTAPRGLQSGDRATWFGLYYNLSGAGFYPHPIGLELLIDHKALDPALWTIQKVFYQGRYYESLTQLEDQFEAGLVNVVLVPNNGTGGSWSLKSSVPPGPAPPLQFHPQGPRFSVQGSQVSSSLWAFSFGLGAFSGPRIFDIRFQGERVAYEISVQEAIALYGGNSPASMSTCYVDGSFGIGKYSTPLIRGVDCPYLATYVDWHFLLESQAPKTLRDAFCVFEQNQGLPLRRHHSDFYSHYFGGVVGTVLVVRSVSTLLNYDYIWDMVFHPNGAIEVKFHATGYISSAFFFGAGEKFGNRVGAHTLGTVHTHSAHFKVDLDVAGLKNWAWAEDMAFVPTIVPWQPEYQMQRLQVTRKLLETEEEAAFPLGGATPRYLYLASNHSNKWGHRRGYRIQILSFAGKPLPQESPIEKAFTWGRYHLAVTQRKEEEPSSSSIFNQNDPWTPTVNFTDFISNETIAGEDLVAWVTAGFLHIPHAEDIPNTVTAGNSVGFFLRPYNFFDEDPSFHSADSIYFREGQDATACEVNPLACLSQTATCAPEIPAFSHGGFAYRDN
Nature of the experiment: Inhibition of amine oxidase activity of mouse SSAO/VAP-1 (3T3-L1 adipocytes, Amplex Red). In kind it is biochemical. The conditions noted are these: 3T3-L1 adipocyte SSAO, 40 μM benzylamine. An excerpt:
3T3-L1 Murine fibroblasts were purchased from the American Type Culture Collection (ATCC, Rockville, Md.). Dulbecco's Modified Eagle Medium (DMEM) and fetal calf serum (FCS), antibiotics and Amplex® Red were obtained from Invitrogen (Carlsbad, Calif.). Tissue culture plastics and black clear-bottom 96 well plates were from BD Falcon (Bedford, Mass.). Bicinchoninic acid (BCA) reagent was from Pierce (Rockford, Ill.). All other materials were obtained from Sigma (St. Louis, Mo.).
3T3-L1 Fibroblasts were cultured in DMEM supplemented with 10% heat-inactivated FCS, 2 mM L-glutamine, 100 U/L penicillin and 100 μg/L streptomycin at 37° C. in 5% CO2. For differentiation into adipocytes, fibroblasts were cultured in DMEM with FCS for 1 or 2 days postconfluence, after which the cells were cultured for 3 days in DMEM containing 10% FCS, 350 nM insulin, 0.5 mM 3-isobutyl-1-methylxanthine, 250 nM dexamethasone, and 400 nM biotin and for 3 days in DMEM containing 10% FCS and 350 nM insulin. After differentiation, adipocytes were maintained in DMEM supplemented with 10% FCS. Adipocytes were used for experiments 8 to 11 days after the onset of differentiation, and the medium was renewed 2 or 3 days prior to each experiment. For culturing in black clear-bottom 96-well plates, cells were seeded at a 1:1 cell surface ratio, and differentiation was initiated 4 days postseeding. Cells were used between days 6-12 post-differentiation and between passages 7 and 20. Adipocytes were used as an SSAO source either as adherent cells or as a homogenate.
To prepare homogenate, 10 cm dishes of adipocytes were washed with HES buffer (20 mM HEPES, 1 mM EDTA, 250 mM sucrose, pH 7.4) and scraped in HES buffer containing 10 μg/mL leupeptin, 10 μM pepstatin and 1 mM PMSF. Cells were lysed by passage through a 23 G needle followed by passage through a 27 G needle. The lysate was spun at 500 g for 5 min and fat was removed. Protein concentration of the supernatant was measured using a BCA assay according to the manufacturer's instructions. The homogenate was stored at −80° C. until needed.
To measure the SSAO activity, adipocyte homogenate (0.5 mg/mL) or adipocytes (adhering cells) containing 0.5 mM pargyline, or purified human SSAO was incubated in 0.1 M sodium phosphate buffer pH 7.4 with varying concentrations of test compounds for 30 min at 37° C. The homogenate was then incubated at 37° C. with 60 μM Amplex® Red, 0.75 U/mL HRP and 40 μM benzylamine (mouse SSAO) or 300 μM benzylamine (human SSAO) and the formation of resorufin was measured (excitation range 530-560 nm and emission at 590 nm) every 10 min in either a Tecan Infinite 200 or a BMG plate reader. The IC50 values were estimated using Graphpad Prism software. The IC50 is an estimation of the concentration of the test compound to inhibit the amine oxidase activity of SSAO/VAP-1 by 50%. The IC50 values of certain invention compounds are included in Table 1.

Structures are written as SMILES. Counter-ions that a name gives are not always drawn.

Usually IC50 stands for the point on the concentration scale where inhibition reaches its midpoint. On to `CS(=O)(=O)c1ccc(OC/C(F)=C\CN)cc1.Cl` [(E)-3-Fluoro-4-(4-(methylsulfonyl)phenoxy)but-2-en-1-amine hydrochloride], for which the IC50 on Human MAO-B (30 min at 37° C. preincubation) was < 100000 nM; on Mouse SSAO/VAP-1 (30 min at 37° C. preincubation), < 1000 nM.
For `NC/C=C(/F)COc1ccc(C(=O)NC2CCCCC2)cc1` [(E)-4-(4-amino-2-fluorobut-2-enyloxy)-N-cyclohexylbenzamide hydrochloride], in that order: < 1000 nM and < 1000 nM.
On to `C[C@H](NS(=O)(=O)c1ccc(OC/C(F)=C\CN)cc1)c1ccccc1.Cl` [(S,E)-4-(4-Amino-2-fluorobut-2-enyloxy)-N-(1-phenylethyl)benzenesulfonamide], for which the IC50 at Human MAO-B (30 min at 37° C. preincubation) and against Mouse SSAO/VAP-1 (30 min at 37° C. preincubation) was < 1000 nM each time.
For `NC/C(=C/F)CCc1ccc(F)cc1` [Mofegiline, reference compound], the IC50 at Human MAO-B was 4 nM; against Mouse SSAO/VAP-1 it was 1 nM.
Take `Cc1nc2cc(OC/C(F)=C\CN)ccc2s1.Cl` [(E)-3-Fluoro-4-(2-methylbenzo[d]thiazol-5-yloxy)but-2-en-1-amine hydrochloride]: the IC50 at Human MAO-B (30 min at 37° C. preincubation) is < 100000 nM; against Mouse SSAO/VAP-1 (30 min at 37° C. preincubation), < 1000 nM.
